Measurements reported in patent US8222288B2, “Small molecule inhibitors of MDM2 and the uses thereof” (The Regents of the University of Michigan, priority 2006, dated 2012).
Where “and” joins values, the source holds several entries; their conditions need not be identical. Equal values may be shown once. Read-outs that look alike come from different tables or passages of the source.

What was measured:
[1] = tested on: LNCaP (p53 wild-type) cells; test: Cell growth inhibition, WST-8, 4 days, LNCaP; conditions: single runs and mean ± SD line
Description: (§1) To test these predictions, a cell growth assay was developed using human prostate cancer LNCaP (p53 wild-type) and PC-3 (p53 null) cell lines.
(§2) Cells were seeded in 96-well flat bottom cell culture plates at a density of 3-4×10^3 cells/well and incubated in the presence of compounds for 4 days.

[2] = tested on: HCT116 (wild-type p53) colon cancer cells; test: Cell growth inhibition, HCT116 p53WT; conditions: single runs and mean ± SD line
Description: as §2

PC-3 (p53 null) cells = test: Cell growth inhibition, WST-8, 4 days, PC3; conditions: single runs and mean ± SD line
Description: as §1, §2

HCT116 p53KO cells = test: Cell growth inhibition, HCT116 p53KO; conditions: single runs and mean ± SD line
Description: as §2

MDM2 protein = MDM2 protein (Homo sapiens, UniProt Q00987); test: MDM2 binding assay (competition with F-6 probe; IC50 and calculated Ki); conditions: F-6 [1 nM]; for IC50: MDM2 [10 nM], repeat determinations listed line by line; for Ki: value in parentheses, calculation of Ki: MDM2 [10 nM], read-out: (Ki ± SD)
Chain of MDM2 protein (Q00987 whole entry, species assumed): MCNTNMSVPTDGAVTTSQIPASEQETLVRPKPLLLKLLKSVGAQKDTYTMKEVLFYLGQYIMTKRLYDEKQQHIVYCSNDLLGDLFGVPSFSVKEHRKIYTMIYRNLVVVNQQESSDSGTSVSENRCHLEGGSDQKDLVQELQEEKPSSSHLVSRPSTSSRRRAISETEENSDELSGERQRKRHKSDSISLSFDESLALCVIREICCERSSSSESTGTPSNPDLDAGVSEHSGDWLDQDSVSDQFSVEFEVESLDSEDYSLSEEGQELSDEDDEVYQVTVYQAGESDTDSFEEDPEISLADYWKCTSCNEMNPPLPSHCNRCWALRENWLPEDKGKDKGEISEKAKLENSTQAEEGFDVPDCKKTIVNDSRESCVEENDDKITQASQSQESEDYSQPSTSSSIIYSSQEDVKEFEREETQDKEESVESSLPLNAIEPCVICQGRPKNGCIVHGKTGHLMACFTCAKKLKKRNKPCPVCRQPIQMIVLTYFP

[3] = Homo sapiens, LNCaP, 96 h, read-out: LNCaP IC50 (μM), LNCaP p53 wild-type, 4 days, WST-8
[4] = read-out: LNCaP IC50, LNCaP p53 wild-type, 4 days, WST-8
[5] = Homo sapiens, HCT-116, read-out: HCT116 p53WT IC50 (μM), HCT116 p53WT
[6] = Homo sapiens, 96 h, read-out: PC3 IC50 (μM), PC3 p53 null, 4 days, WST-8
[7] = Homo sapiens, HCT-116, read-out: HCT116 p53KO IC50 (μM), HCT116 p53KO
[8] = read-out: HCT116 p53KO IC50, HCT116 p53KO
[9] = read-out: PC3 IC50, PC3 p53 null, 4 days, WST-8
[10] = read-out: HCT116 p53WT IC50, HCT116 p53WT

| Structure (SMILES) | IC50 [1, 3] [µM] | IC50 [2, 5] [µM] | IC50 (PC-3 (p53 null) cells; [6]) [µM] | IC50 (HCT116 p53KO cells; [7]) [µM] | IC50 (MDM2 protein) | further results |
| --- | --- | --- | --- | --- | --- | --- |
| CC(C)(C)C[C@H]1N[C@@H](C(=O)NCCNC(=N)N)[C@H](c2ccc(F)c(Cl)c2)[C@@]12C(=O)Nc1cc(Cl)c(F)cc12 [MI-319-20, 6-CHLORO-4′-(3-CHLORO-4-FLUOROPHENYL)-2′-(2,2-DIMETHYL-PROPYL)-5-FLUORO-2-OXO-1,2-DIHYDRO-SPIRO[INDOLE-3,3′-PYRROLIDINE]-5′-CARBOXYLIC ACID (2-GUANIDINO-ETHYL)-AMIDE] | 27.4 | – | – | – | – | IC50 [1, 4]: 31.6 µM |
| CC(C)(C)C[C@H]1N[C@@H](C(=O)NCC[C@H](O)C(=O)O)[C@H](c2ccc(F)c(Cl)c2)[C@@]12C(=O)Nc1cc(Cl)c(F)cc12 [MI-319-16] | – | > 30 | > 30 | – | – | – |
| O=C(NCC[C@H](O)CO)[C@@H]1N[C@H](Cc2ccccc2)[C@]2(C(=O)Nc3cc(Cl)c(F)cc32)[C@H]1c1ccc(F)c(Cl)c1 [MDM2-319-2] | – | – | 14.4 | 22.2 | 175 µM and > 80 µM | IC50 (HCT116 p53KO cells; [8]): 19.5 µM and 25.4 µM and 22.4 µM; Ki (MDM2 protein): 16.4 µM; IC50 (PC-3 (p53 null) cells; [9]): 19.6 µM (2×) and 17.9 µM |
| O=C(NCC[C@H](O)CO)[C@@H]1N[C@H](C2CCCCC2)[C@]2(C(=O)Nc3cc(Cl)c(F)cc32)[C@H]1c1ccc(F)c(Cl)c1 [MDM2-319-4, 6-CHLORO-4′-(3-CHLORO-4-FLUOROPHENYL)-2′-CYCLOHEXYL-5-FLUORO-2-OXO-1,2-DIHYDRO-SPIRO[INDOLE-3,3′-PYRROLIDINE]-5′-CARBOXYLIC ACID (3,4-DIHYDROXY-BUTYL)-AMIDE] | – | – | – | – | 0.71 µM and 1.16 µM and 0.46 µM | Ki (MDM2 protein): 0.066 µM |
| COC(C)(C)C[C@H]1N[C@@H](C(=O)NCC[C@H](O)CO)[C@H](c2ccc(F)c(Cl)c2)[C@@]12C(=O)Nc1cc(Cl)c(F)cc12 [MI-319-7] | 2.17 | 8.22 | 39.7 | – | 39.3 µM | – |
| CC(C)(C)C[C@H]1N[C@@H](C(=O)NCCn2ccnc2)[C@H](c2ccc(F)c(Cl)c2)[C@@]12C(=O)Nc1cc(Cl)c(F)cc12 [MI-319-17, 6-CHLORO-4′-(3-CHLORO-4-FLUOROPHENYL)-2′-(2,2-DIMETHYL-PROPYL)-5-FLUORO-2-OXO-1,2-DIHYDRO-SPIRO[INDOLE-3,3′-PYRROLIDINE]-5′-CARBOXYLIC ACID (2-IMIDAZOL-1-YL-ETHYL)-AMIDE] | – | – | – | – | 0.39 µM and 0.49 µM | – |
| CC(C)(C)C[C@H]1N[C@@H](C(=O)NCC[C@H](O)CO)[C@H](c2ccc(F)c(Cl)c2)[C@@]12C(=O)Nc1cc(Cl)c(F)cc12 [MDM2-319, (2′R,3S,3″S,4′R,5′R)6-CHLORO-4′-(3-CHLORO-4-FLUORO-PHENYL)-2′-(2,2-DIMETHYL-PROPYL)-5-FLUORO-2-OXO-1,2-DIHYDRO-SPIRO[INDOLE-3,3′-PYRROLIDINE]-5′-CARBOXYLIC ACID (3,4-DIHYDROXY-BUTYL)-AMIDE] | 0.229 ± 0.04 | – | – | 12.8 ± 1.29 | – | – |
| CC(C)(C)C[C@H]1N[C@@H](C(=O)NCC[C@@H](O)C[C@@H](O)CC(=O)O)[C@H](c2ccc(F)c(Cl)c2)[C@@]12C(=O)Nc1cc(Cl)c(F)cc12 [MI-319-18, 7-{[6-CHLORO-4′-(3-CHLORO-4-FLUOROPHENYL)-2′-(2,2-DIMETHYL-PROPYL)-5-FLUORO-2-OXO-1,2-DIHYDRO-SPIRO[INDOLE-3,3′-PYRROLIDINE]-5′-CARBONYL]-AMINO}-3,5-DIHYDROXY-HEPTANOIC ACID] | > 30 | > 30 | > 30 | > 30 | 3.51 µM and 3.57 µM | – |
| CN1CCN(C(=O)[C@@H]2N[C@H](CC(C)(C)C)[C@]3(C(=O)Nc4cc(Cl)c(F)cc43)[C@H]2c2ccc(F)c(Cl)c2)CC1 [MI-319-9] | 2.87 | – | – | – | 3.58 µM | IC50 [1, 4]: 2.77 µM and 1.75 µM |
| CC(C)(C)C[C@H]1N[C@@H](C(=O)NCCC2CCC(O)C2)[C@H](c2ccc(F)c(Cl)c2)[C@@]12C(=O)Nc1cc(Cl)c(F)cc12 (single isomer, unassigned) [MDM2-319-6, 6-CHLORO-4′-(3-CHLORO-4-FLUOROPHENYL)-2′-(2,2-DIMETHYL-PROPYL)-5-FLUORO-2-OXO-1,2-DIHYDRO-SPIRO[INDOLE-3,3′-PYRROLIDINE]-5′-CARBOXYLIC ACID [2-(3-HYDROXY-CYCLOPENTYL)-ETHYL]-AMIDE] | – | – | – | – | 0.59 µM and 0.55 µM | – |
| CC(C)(C)C[C@H]1N[C@@H](C(=O)NCCC2CCC(O)C2)[C@H](c2ccc(F)c(Cl)c2)[C@@]12C(=O)Nc1cc(Cl)c(F)cc12 (some centres unmarked) [MDM2-319-5] | 0.602 | 0.993 | 9.47 | 10.5 | 0.055 µM and 0.04 µM | – |
| CC(C)(C)C[C@H]1N[C@@H](C(=O)NC[C@H](O)[C@H](O)CO)[C@H](c2ccc(F)c(Cl)c2)[C@@]12C(=O)Nc1cc(Cl)c(F)cc12 [MI-319-19, 6-CHLORO-4′-(3-CHLORO-4-FLUOROPHENYL)-2′-(2,2-DIMETHYL-PROPYL)-5-FLUORO-2-OXO-1,2-DIHYDRO-SPIRO[INDOLE-3,3′-PYRROLIDINE]-5′-CARBOXYLIC ACID (2,3,4-TRIHYDROXY-BUTYL)-AMIDE] | – | – | – | – | 0.5 µM and 0.49 µM | – |
| CC(=O)N1[C@@H](C(=O)NCC[C@H](O)CO)[C@H](c2ccc(F)c(Cl)c2)[C@@]2(C(=O)Nc3cc(Cl)c(F)cc32)[C@H]1CC(C)(C)C [MI-319-13, 1′-ACETYL-6-CHLORO-4′-(3-CHLORO-4-FLUOROPHENYL)-2′-(2,2-DIMETHYL-PROPYL)-5-FLUORO-2-OXO-1,2-DIHYDRO-SPIRO[INDOLE-3,3′-PYRROLIDINE]-5′-CARBOXYLIC ACID (3,4-DIHYDROXY-BUTYL)-AMIDE] | – | – | – | 32.6 | 5.87 µM and 5.04 µM | IC50 (HCT116 p53KO cells; [8]): 35.1 µM and 33 µM and 33.6 µM |
| CC(C)(C)C[C@H]1N[C@@H](C(=O)NCC(=O)O)[C@H](c2ccc(F)c(Cl)c2)[C@@]12C(=O)Nc1cc(Cl)c(F)cc12 [MI-319-15, {[6-CHLORO-4′-(3-CHLORO-4-FLUOROPHENYL)-2′-(2,2-DIMETHYL-PROPYL)-5-FLUORO-2-OXO-1,2-DIHYDRO-SPIRO[INDOLE-3,3′-PYRROLIDINE]-5′-CARBONYL]-AMINO}-ACETIC ACID] | 4.52 | 12.1 | > 30 | > 30 | 0.35 µM and 0.18 µM | IC50 [2, 10]: 12.9 µM and 13.9 µM and 13 µM; IC50 [1, 4]: 4.12 µM and 6.11 µM and 4.92 µM |
| CC(C)(C)C[C@H]1N[C@@H](C(=O)NCCc2ncc[nH]2)[C@H](c2cccc(Cl)c2)[C@@]12C(=O)Nc1cc(Cl)c(F)cc12 [MI-319-21] | 2.84 | 4.4 | 21.9 | 11.8 | – | – |
| CC(C)(C)C[C@H]1N(S(=O)(=O)C(F)(F)F)[C@@H](C(=O)NCCN2CCOCC2)[C@H](c2ccc(F)c(Cl)c2)[C@@]12C(=O)Nc1cc(Cl)c(F)cc12 [MI-319-10] | 0.776 | 1.41 | 10.5 | – | – | IC50 [2, 10]: 1.95 µM and 1.09 µM and 1.48 µM; IC50 [1, 4]: 0.828 µM and 0.449 µM and 0.68 µM; IC50 (PC-3 (p53 null) cells; [9]): 10.4 µM and 8.07 µM and 9.63 µM |
| O=C(NCC[C@H](O)CO)[C@@H]1N[C@H](C2CCCC2)[C@]2(C(=O)Nc3cc(Cl)c(F)cc32)[C@H]1c1ccc(F)c(Cl)c1 [MI-319-8, 6-CHLORO-4′-(3-CHLORO-4-FLUOROPHENYL)-2′-CYCLOPENTYL-5-FLUORO-2-OXO-1,2-DIHYDRO-SPIRO[INDOLE-3,3′-PYRROLIDINE]-5′-CARBOXYLIC ACID (3,4-DIHYDROXY-BUTYL)-AMIDE] | – | – | – | – | 0.34 µM and 0.53 µM | – |
| O=C(NCC[C@H](O)CO)[C@@H]1N[C@H](CC2CCCC2)[C@]2(C(=O)Nc3cc(Cl)c(F)cc32)[C@H]1c1ccc(F)c(Cl)c1 [MDM2-319-1, 6-CHLORO-4′-(3-CHLORO-4-FLUOROPHENYL)-2′-CYCLOPENTYLMETHYL-5-FLUORO-2-OXO-1,2-DIHYDRO-SPIRO[INDOLE-3,3′-PYRROLIDINE]-5′-CARBOXYLIC ACID (3,4-DIHYDROXY-BUTYL)-AMIDE] | – | – | – | – | 0.194 µM and 0.072 µM | – |
